Consider three compounds from patent US8318787B2, “Prodrugs of (3,5-bis(4-fluorophenyl)tetrahydro-1H-oxazolo[3,4-C]oxazol-7A-yl)methanol and derivatives thereof” (University of Kansas, priority 2005, dated 2012).

Usually Papp stands for the rate of passage across a membrane or cell layer, normalised by area and donor concentration. Read a low Papp as poor permeation.

Data set [1] concerns Tubulin. Conditions: reported by Shintani et al. 1997; cited from earlier work.
The subject of another data set is primary cortical neurons. Kind of data set: Neuroprotection of primary cortical neurons exposed to Aβ peptides (Live/Dead assay). Type of data set: cell-based. Conditions: Rattus norvegicus, Primary cortical neuron, Aβ25-35, 48 hours, read-out: EC50 (concentration that lead to a 50% increase in neuronal survival in the presence of the Aβ peptide). On the procedure:
This example illustrates the neuroprotective effects of TH-237A in neuronal cells after exposure to Aβ peptides. To prepare the primary neurons, dissociated cortical cell cultures were established from embryonic day 18 rat fetuses recovered from pregnant Sprague Dawley rats (Harlan Sprague Dawley, Inc., Indianapolis, Ind.) as described previously (Michaelis et al., 1994). Pups were delivered by cesarean section while the dam was anesthetized with pentobarbital (140 mg/kg, i.p.), and the brains were recovered according to National Institutes of Health-approved protocols. After the final precipitation step, neurons were suspended in fresh DMEM/F12 (Sigma Chemical Co. St. Louis, Mo.) with 10% fetal bovine serum (Atlanta Biologicals, Atlanta, Ga.) and plated at a density of 2.5×10^5 cells in 35 mm glass bottom microwell dishes (Mat-Tek Co., Ashland, Mass.), coated with poly-D-lysine. Serum-containing medium was removed after 24 hours, and the cells were maintained in serum-free DMEM/F12 containing the N2 supplements. […]
After five days in culture, the primary neurons were exposed to either Aβ25-35 or Aβ1-42 in the presence or absence of concentrations of TH-237A ranging from 0.5 to 60 nM. […] Each batch of Aβ peptide was analyzed for β-sheet formation by circular dichroism, but no effort was made to separate oligomers from fibrils. […]
The effects of the Aβ peptides and TH-237A were primarily determined by monitoring neuronal cell survival using the Live/Dead assay as previously described (Michaelis et al., 1998; Michaelis et al., 2005). […] The number of viable (green) and dead (red) neurons was determined by counting the cells, and this was done in 6-12 microscopic fields per culture dish in duplicate dishes for each treatment. […] Thus, approximately 1500 neurons were scored under each treatment condition. The fraction of viable cells in each field was calculated based on the total number of cells counted in each field. Raw data from each experiment were combined and the significance of differences between cultures exposed to various treatments was determined using Student's t test. […]

Data set [2] deals with P-glycoprotein efflux transporter. Kind of data set: Rhodamine 123 accumulation assay in bovine brain microvessel endothelial cells. Type of data set: in vitro ADME. As to conditions: BBMECs. On the procedure: First, a rhodamine 123 assay was used for to assess uptake of the test compound in brain endothelial cells. Bovine brain microvessel endothelial cells (“BBMECs”) were isolated and grown in primary culture on 12 well cluster dishes at a density of 50,000 cells/cm^2 essentially as described previously (Rice et al., 2005). The culture medium was changed every other day after seeding until a confluent monolayer was formed as determined by light microscopy. Experiments were performed in phosphate buffered saline supplemented with calcium and glucose (PBSA), pH 7.4. Briefly, the growth medium was first aspirated off, and the cells were rinsed three times with pre-warmed (37° C.) PBSA. […] Cell lysates were assayed using a microplate fluorescence reader (Bio-Tek Instruments, Winooski, Vt.) at excitation/emission wavelengths of 485 nm/520 nm, then quantified against standard curves of rhodamine 123 in lysing solution. The fluorescence of the cell lysates was corrected for autofluorescence of untreated cells. The protein content of each monolayer was then determined using the BCA protein assay reagent kit. Results were expressed as total nanomoles of rhodamine 123 accumulation per mg cellular protein for agents tested at 10 μM.

Data set [3] in a line: In vivo pharmacokinetics in plasma and brain. Details: species or system Male Balb/C mice. Conditions: mice, 10 mg/Kg in Captisol, i.v. or s.c. On the procedure:
In this example, the pharmacokinetics of TH-237A were evaluated in vivo. Male Balb/C mice were dosed with TH-237A (10 mg/Kg in Captisol®) via either an i.v. injection into the tail vein or via subcutaneous (sc) injection. At multiple time points ranging from 0 to 240 minutes, 12 mice (n=6, i.v.; n=6, s.c.) were anesthetized with isoflurane, and blood was collected via cardiac puncture. Mice were perfused with 30 mL of saline to wash remaining blood from the vessels, and the brain tissue was harvested. The levels of TH-237A in plasma and brain were quantified using mass spectrometric methods.
Sample preparations. Brain homogenate was prepared in a 1:4 ratio with deionized water. A sonic dismembrator was pulsed at 30% power until the sample was liquified. Aliquots of mouse plasma (0.05 mL) or mouse brain homogenates (0.25 g) were spiked with 50 ng of internal standard (deuterated TH-237A) and vortexed for 10 seconds. The TH-237A and internal standard were extracted using 1.3 mL of methyl t-butyl ether. Samples were vortexed for 5 minutes and centrifuged. The supernatant was transferred to 2 mL centrifuge tubes and evaporated to dryness. The sample was reconstituted in 0.2 mL of sample solvent, vortexed and centrifuged before a 10 uL aliquot was injected on to the LC/MS system for analysis.
Analysis of TH-237A. The levels of the drug in the samples were determined by means of HPLC/MS. […]

A short description of the next data set: in vitro. As to conditions: bovine, pH 7.4.
Data set [4] relates to Tubulin. Kind of data set: Tubulin assembly centrifugation assay. Type of data set: biochemical. As to conditions: 1.0 μM compound. How it is done: In this example, the mechanism of TH-237A's neuroprotective effects was investigated. In a first experiment, the microtubule-stabilizing ability of TH-237A was investigated using a tubulin assembly centrifugation assay. Tubulin (1.0 mg/ml), free of microtubule-associated proteins (“MAPs”), was incubated in PEM buffer (0.1 M Pipes, 1 mM EGTA, 1 mM MgSO4, pH 6.9), 4% DMSO, various concentrations of paclitaxel or TH-237A, with or without 0.5 mM GTP, in a total volume of 0.1 ml for 15 minutes at 37° C. Samples were centrifuged at 50,000×g for 4 minutes in a Beckman TL-100 ultracentrifuge. Protein determinations were performed on the supernatants and the amount of polymer formed was calculated from the difference between the starting concentration and the supernatant concentration. The maximum concentration of polymer was taken to be that formed at 25 μM paclitaxel. An experiment was also done using a tubulin preparation containing microtubule-associated proteins (“MTP”) at a protein concentration of 2 mg/ml without GTP.

The test system of data set [5] is microtubules. Briefly: Cold stability of microtubules. The class given is biochemical. Conditions: 25 μM compound, on ice 15 minutes.
Procedure: In another experiment, the cold stability of microtubles was investigated. Microtubules were formed from MAP-free tubulin (2 mg/ml) and MTP (2 mg/ml) at 37° C. A sample was centrifuged at 50,000×g to determine the amount of polymer formed. To three other samples DMSO, 20 μM paclitaxel or 400 μM TH-237A was added, and the samples were placed on ice for 15 minutes before centrifuging at 4° C. Pellets were dissolved in 0.1 ml of 0.1 M NaOH and protein determinations were made on the supernatants and pellets. Cold-induced depolymerization leads to an increase in the supernatant protein concentration.
For data set [6], the system named is microtubules. Kind of data set: Competitive binding of paclitaxel and TH-237A to microtubules. As to conditions: addition of 40 μM Taxol. On the procedure: Competitive binding of paclitaxel and TH-237A—Microtubules were formed from MTP (2 mg/ml) in the presence of 0.5 mM GTP. […] […] After 10 minutes at 37° C., the microtubules were collected by centrifugation and dissolved in 0.1 ml of 0.1 M NaOH. Protein and radioactivity determinations of the dissolved microtubules were performed.

The subject of a further data set is cellular microtubules. Briefly: Immunostaining of cellular microtubules. Type of data set: cell-based. Conditions: 1 and 10 μM. How it is done: Immunostaining of cellular microtubules—Cells were grown in monolayer on sterile slide cover slips in a 6-well plate and treated with paclitaxel or TH-237A for different periods of time. The cover slips were washed with phosphate-buffered saline and the cells fixed by treatment with 95% EtOH at −20° C. for 30 minutes. The cover slips were placed in a humidified chamber and treated with the primary antibody (a mouse anti-β-tubulin monoclonal antibody) for 2 hours to overnight at room temperature. This was followed by washing with phosphate-buffered saline and treatment with the secondary antibody (FITC goat anti-mouse) for 1 hour at room temperature. Cover slips were examined on a Nikon Optiphot fluorescence microscope.

Procedure for in vitro: The BBMECs were grown on 0.4 μm polycarbonate membranes. […] Transport studies were performed in pH 7.4 standard buffer solutions, consisting of either Hank's balanced salt solution (HBSS) or phosphate buffered saline (PBS) supplemented with 0.63 mM CaCl2, 0.74 mM MgSO4, 5.3 mM glucose and 0.1 mM ascorbic acid (PBSA). Briefly, all studies were performed in 3 ml of PBSA in each donor and receiver chamber of the side-by-side diffusion chambers and stirred at 600 rpm at 37° C. The cells were allowed to equilibrate in PBSA for 30 minutes prior to each experiment and oriented such that apical or blood side of the cells face the donor chamber and the basolateral or brain side of the cells adhere to the polycarbonate membranes and face the receiver chamber of the diffusion apparatus. At each time point, a 100 μl sample was taken from the receiver compartment and immediately replaced with an equal volume of PBSA. The transport studies were performed in the presence or absence of CsA (5-10 μM). Monolayers were checked for trypan blue exclusion after experiments as well to assess general cell viability. The permeability of all monolayers used in these experiments was monitored for [^14C] sucrose leakage as a measure of potential TH-237A-induced loss of integrity. The radioactivity was quantified using liquid scintillation spectrometry.

As to `OCC12CO[C@H](c3ccc(F)cc3)N1[C@@H](c1ccc(F)cc1)OC2` [GS-164, (3R,5R)-(3,5-bis(4-fluorophenyl)tetrahydro-1H-oxazolo[3,4-c]oxazol-7a-yl)methanol], the “stimulation of tubulin polymerization relative to paclitaxel” value in the data set on Tubulin [1] is “one-tenth”.

Regarding `OC[C@]12CO[C@H](c3ccc(F)cc3)N1[C@H](c1ccc(F)cc1)OC2` [TH-237A, (3R,5S,7as)-(3,5-bis(4-fluorophenyl)tetrahydro-1H-oxazolo[3,4-c]oxazol-7a-yl)methanol], the EC50 in the data set with primary cortical neurons came out at 5 nM. Besides, the “effect on rhodamine 123 accumulation / P-glycoprotein substrate” value in [2] is listed as “not a substrate for the P-glycoprotein efflux transporter”. In data set [3], the plasma half-life entry is reported as “on the order of hours”. Moreover, the “amount of drug entering the plasma” value in [3] (regardless of route) is given as “a very significant amount of the drug enters the plasma”. The same compound had an apparent permeability (Papp) in the data set “in vitro” of 270 ×10⁻⁶ cm/s.

Consider `CC(=O)O[C@H]1C(=O)[C@@]2(C)[C@H]([C@H](OC(=O)c3ccccc3)[C@]3(O)C[C@H](OC(=O)[C@H](O)[C@@H](NC(=O)c4ccccc4)c4ccccc4)C(C)=C1C3(C)C)[C@]1(OC(C)=O)CO[C@@H]1C[C@@H]2O` [Taxol, Paclitaxel], for which the “% of tubulin polymerized” value in the data set on Tubulin [4] is 75%. Besides, the “cold-induced depolymerization of microtubules prevented” value with microtubules [5] is listed as ~100%. For the same compound, in the data set on microtubules [6], the “displacement of bound labeled TH-237A (100 μM) from microtubules” value is “about 5%”. The “polymerization of the microtubules in situ in the cells” value with cellular microtubules was “clearly evident”. In “in vitro”, this compound displayed a Papp of 5 ×10⁻⁶ cm/s.
